Measurements as given in PubChem BioAssay AID270 (DTP/NCI, 2004).
Where “and” joins values, the source holds several entries; their conditions need not be identical. Identical values can stand only once. Records with an inconclusive call do not appear.

Tested on: BDF1 mice, s.c. Lewis lung carcinoma, T/C %
Experiment: NCI In Vivo Anticancer Drug Screen. Data for tumor model Lewis Lung Carcinoma (subcutaneous) in B6D2F1 (BDF1) mice
Method in brief: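 The value reflects a ratio in which the treated cohort's survival time or tumour size is compared against mice receiving only vehicle.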

Q: For `CC1CCC2C(C)C3C(CC4C5CC=C6CC(OC7OC(CO)C(O)C(OC8OC(CO)C(O)C(O)C8O)C7OC7OC(C)C(O)C(O)C7O)CCC6(C)C5CCC43C)N2C1` (stereo unspecified), which T/C (endpoint: mean tumor weight, dose: 54.0 mg/kg/injection, schedule: Q01DX011 (sc), vehicle: steriod suspending solution, higher = larger tumour) is on record?
A: 112 % of control

Q: And the T/C (endpoint: mean tumor weight, dose: 80.0 mg/kg/injection, schedule: Q01DX011 (sc), vehicle: steriod suspending solution, higher = larger tumour)?
A: 69 % of control

Q: What about the T/C (endpoint: mean tumor weight, dose: 120.0 mg/kg/injection, schedule: Q01DX011 (sc), vehicle: steriod suspending solution, higher = larger tumour) of the same compound?
A: 76 % of control

Q: What does the source list for `C=C/C(C)=C/[C@H](C)C(=O)C[C@H](O)CC1CC(=O)NC(=O)C1`?
A: T/C (endpoint: median survival time, dose: 6.25 mg/kg/injection, schedule: Q01DX009 (ip), vehicle: saline with Tween-80, higher = longer survival): 95 % of control; T/C (endpoint: median survival time, dose: 12.5 mg/kg/injection, schedule: Q01DX009 (ip), vehicle: saline with Tween-80, higher = longer survival): 98 % of control; T/C (endpoint: median survival time, dose: 12.5 mg/kg/injection, schedule: Q04DX003 (ip), vehicle: saline with Tween-80, higher = longer survival): 98 % of control; T/C (endpoint: median survival time, dose: 25.0 mg/kg/injection, schedule: Q01DX009 (ip), vehicle: saline with Tween-80, higher = longer survival): 97 % of control; T/C (endpoint: median survival time, dose: 25.0 mg/kg/injection, schedule: Q04DX003 (ip), vehicle: saline with Tween-80, higher = longer survival): 111 % of control; T/C (endpoint: median survival time, dose: 50.0 mg/kg/injection, schedule: Q04DX003 (ip), vehicle: saline with Tween-80, higher = longer survival): 92 % of control; T/C (endpoint: median survival time, dose: 100.0 mg/kg/injection, schedule: Q04DX003 (ip), vehicle: saline with Tween-80, higher = longer survival): 101 % of control

Q: With `[Cl][Ni+2][Cl].[NH-]CCN1CC1` as the compound, how does the T/C (endpoint: median survival time, dose: 1.56 mg/kg/injection, schedule: Q01DX009 (ip), vehicle: saline, higher = longer survival) read?
A: 103 % of control and 115 % of control

Q: And the T/C (endpoint: median survival time, dose: 12.5 mg/kg/injection, schedule: Q01DX009 (ip), vehicle: saline, higher = longer survival)?
A: 100 % of control

Q: Which results are given for `O=NN(CCCl)C(=O)Nc1ccc2c3c(cccc13)-c1ccccc1-2`?
A: T/C (endpoint: median survival time, dose: 50.0 mg/kg/injection, schedule: Q01DX009 (ip), vehicle: Klucel (hydroxypropylcellulose) (HPC), higher = longer survival): 100 % of control; T/C (endpoint: median survival time, dose: 100.0 mg/kg/injection, schedule: Q01DX009 (ip), vehicle: Klucel (hydroxypropylcellulose) (HPC), higher = longer survival): 97 % of control; T/C (endpoint: median survival time, dose: 200.0 mg/kg/injection, schedule: Q01DX009 (ip), vehicle: Klucel (hydroxypropylcellulose) (HPC), higher = longer survival): 88 % of control

Q: What does the source list for `Cc1ccc(N2CCN(CCCN3CCN(c4ccccc4Cl)CC3)CC2)cc1`?
A: T/C (endpoint: mean tumor weight, dose: 22.5 mg/kg/injection, schedule: Q01DX011 (ip), vehicle: carboxymethylcellulose (CMC), higher = larger tumour): 108 % of control; T/C (endpoint: mean tumor weight, dose: 45.0 mg/kg/injection, schedule: Q01DX011 (ip), vehicle: carboxymethylcellulose (CMC), higher = larger tumour): 45 % of control; T/C (endpoint: mean tumor weight, dose: 90.0 mg/kg/injection, schedule: Q01DX011 (ip), vehicle: carboxymethylcellulose (CMC), higher = larger tumour): 38 % of control

Q: `CCOC(=O)C1CCC(NC(=O)N(CCCl)N=O)CC1` (stereo unspecified) was tested. Which T/C (endpoint: median survival time, dose: 8.6 mg/kg/injection, schedule: Q04DX004 (ip), vehicle: gum acacia, higher = longer survival) did it give?
A: 155 % of control

Q: And the T/C (endpoint: median survival time, dose: 13.0 mg/kg/injection, schedule: Q04DX004 (ip), vehicle: gum acacia, higher = longer survival)?
A: 155 % of control and 168 % of control and 204 % of control

Q: And the T/C (endpoint: median survival time, dose: 15.0 mg/kg/injection, schedule: Q07DX002 (ip), vehicle: gum acacia, higher = longer survival)?
A: 413 % of control

Q: What about the T/C (endpoint: median survival time, dose: 18.0 mg/kg/injection, schedule: Q04DX004 (ip), vehicle: gum acacia, higher = longer survival) of the same compound?
A: 176 % of control and 252 % of control

Q: What about the T/C (endpoint: median survival time, dose: 20.0 mg/kg/injection, schedule: Q04DX004 (ip), vehicle: gum acacia, higher = longer survival) of the same compound?
A: 181 % of control

Q: And the T/C (endpoint: median survival time, dose: 21.0 mg/kg/injection, schedule: Q07DX002 (ip), vehicle: gum acacia, higher = longer survival)?
A: 413 % of control

Q: What about the T/C (endpoint: median survival time, dose: 22.0 mg/kg/injection, schedule: Q07DX002 (ip), vehicle: gum acacia, higher = longer survival) of the same compound?
A: 191 % of control

Q: What about the T/C (endpoint: median survival time, dose: 24.0 mg/kg/injection, schedule: Q07DX002 (ip), vehicle: gum acacia, higher = longer survival) of the same compound?
A: 232 % of control and 245 % of control

Q: And the T/C (endpoint: median survival time, dose: 28.0 mg/kg/injection, schedule: Q07DX002 (ip), vehicle: gum acacia, higher = longer survival)?
A: 184 % of control

Q: And the T/C (endpoint: median survival time, dose: 30.0 mg/kg/injection, schedule: Q01DX001 (ip), vehicle: gum acacia, higher = longer survival)?
A: 157 % of control and 166 % of control and 187 % of control

Q: And the T/C (endpoint: median survival time, dose: 30.0 mg/kg/injection, schedule: Q04DX004 (ip), vehicle: gum acacia, higher = longer survival)?
A: 70 % of control

Q: And the T/C (endpoint: median survival time, dose: 33.0 mg/kg/injection, schedule: Q07DX002 (ip), vehicle: gum acacia, higher = longer survival)?
A: 88 % of control and 90 % of control

Q: And the T/C (endpoint: median tumor weight (est.), dose: 15.0 mg/kg/injection, schedule: Q01DX001 (ip), vehicle: gum acacia, higher = larger tumour)?
A: 16 % of control

Q: And the T/C (endpoint: median tumor weight (est.), dose: 29.0 mg/kg/injection, schedule: Q01DX001 (ip), vehicle: gum acacia, higher = larger tumour)?
A: 8 % of control

Q: Which results are given for `NC(Cc1cc(I)c(Oc2ccc(O)c(I)c2)c(I)c1)C(=O)O` (stereo unspecified)?
A: T/C (endpoint: mean tumor weight, dose: 25.0 micrograms/kg/injection, schedule: Q01DX011 (ip), vehicle: saline, higher = larger tumour): 93 % of control; T/C (endpoint: mean tumor weight, dose: 100.0 micrograms/kg/injection, schedule: Q01DX011 (ip), vehicle: saline, higher = larger tumour): 115 % of control; T/C (endpoint: mean tumor weight, dose: 200.0 micrograms/kg/injection, schedule: Q01DX011 (ip), vehicle: saline, higher = larger tumour): 118 % of control

Q: `CCCCCCCCSC1=C(Cl)C(=O)C(OC)=C(OC)C1=O` was tested. Which T/C (endpoint: median survival time, dose: 12.5 mg/kg/injection, schedule: Q01DX009 (ip), vehicle: other, higher = longer survival) did it give?
A: 92 % of control
